Values after ≈ are worked out from the molar mass of the structure shown.

Assay [1] concerns Staphylococcus aureus. As to the kind of experiment: Antimicrobial activity against methicillin-resistant Staphylococcus aureus isolate 55 after 24 hrs by agar dilution method. The note with it: isolate 55, 24 h. On the technique in general: Agar dilution tests growth on a series of plates holding different concentrations.
For assay [2], the system named is Staphylococcus aureus. As to the kind of experiment: Antimicrobial activity against methicillin-resistant Staphylococcus aureus isolate 56 after 24 hrs by agar dilution method. The conditions noted are these: isolate 56, 24 h.
In assay [3] the test system is Staphylococcus aureus. As to the kind of experiment: Antimicrobial activity against glycopeptide-susceptible Staphylococcus aureus NRS3 by tube macrodilution method.
Assay [4] has as its system Staphylococcus aureus. As to the kind of experiment: Antimicrobial activity against methicillin-resistant Staphylococcus aureus isolate 55 after 24 hrs by macrodilution method. The note with it: isolate 55, 24 h.
Assay [5] has as its system Staphylococcus aureus. As to the kind of experiment: Antimicrobial activity against methicillin-resistant Staphylococcus aureus isolate 56 after 24 hrs by macrodilution method. The note with it: isolate 56, 24 h.
Assay [6] has as its system Staphylococcus aureus. As to the kind of experiment: Antimicrobial activity against methicillin-resistant Staphylococcus aureus isolate 55 after 48 hrs by agar dilution method. The conditions noted are these: isolate 55, 48 h.
In assay [7] the test system is Staphylococcus aureus. As to the kind of experiment: Antimicrobial activity against methicillin-resistant Staphylococcus aureus isolate 56 after 48 hrs by agar dilution method. The note with it: isolate 56, 48 h.
For assay [8], the system named is Staphylococcus aureus. As to the kind of experiment: Antimicrobial activity against methicillin-resistant Staphylococcus aureus isolate 55 after 48 hrs by macrodilution method. The conditions noted are these: isolate 55, 48 h.
Assay [9] has as its system Staphylococcus aureus. As to the kind of experiment: Antimicrobial activity against methicillin-resistant Staphylococcus aureus isolate 56 after 48 hrs by macrodilution method. The note with it: isolate 56, 48 h.
Assay [10] has as its system Staphylococcus aureus. As to the kind of experiment: Antimicrobial activity against methicillin-resistant Staphylococcus aureus isolate 55 grown on brain heart infusion media after 48 hrs by macrodilution method. The note with it: isolate 55, 48 h.
In assay [11] the test system is Staphylococcus aureus. As to the kind of experiment: Antimicrobial activity against methicillin-resistant Staphylococcus aureus isolate 56 grown on brain heart infusion media after 48 hrs by macrodilution method. The conditions noted are these: isolate 56, 48 h.
Assay [12] concerns Staphylococcus aureus. As to the kind of experiment: Antimicrobial activity against methicillin-resistant Staphylococcus aureus isolate 55 grown on CAMHB media after 48 hrs by tube macrodilution method. The note with it: isolate 55, 48 h.
Assay [13] relates to Staphylococcus aureus. As to the kind of experiment: Antimicrobial activity against methicillin-resistant Staphylococcus aureus isolate 56 grown on CAMHB media after 48 hrs by tube macrodilution method. The conditions noted are these: isolate 56, 48 h.
The test system of assay [14] is Staphylococcus aureus. As to the kind of experiment: Antimicrobial activity against heterogenous glycopeptide-intermediate resistant Staphylococcus aureus Mu3-D grown on brain heart infusion media after 48 hrs by tube macrodilution method.
In assay [15] the test system is Staphylococcus aureus. As to the kind of experiment: Antimicrobial activity against methicillin-resistant Staphylococcus aureus isolate 1 by broth microdilution method. In general terms: In broth dilution the organism is exposed to a series of concentrations in liquid medium.
Assay [16] relates to Staphylococcus aureus. As to the kind of experiment: Antimicrobial activity against methicillin-resistant Staphylococcus aureus isolate 6 by broth microdilution method.
In assay [17] the test system is Staphylococcus aureus. As to the kind of experiment: Antimicrobial activity against methicillin-resistant Staphylococcus aureus isolate 8 by broth microdilution method.
Assay [18] relates to Staphylococcus aureus. As to the kind of experiment: Antimicrobial activity against methicillin-resistant Staphylococcus aureus isolate 12 by broth microdilution method.

With `CN[C@H](CC(C)C)C(=O)N[C@H]1C(=O)N[C@@H](CC(N)=O)C(=O)N[C@H]2C(=O)N[C@H]3C(=O)N[C@H](C(=O)N[C@H](C(=O)O)c4cc(O)cc(O)c4-c4cc3ccc4O)[C@H](O)c3ccc(c(Cl)c3)Oc3cc2cc(c3O[C@@H]2O[C@H](CO)[C@@H](O)[C@H](O)[C@H]2O[C@H]2C[C@](C)(N)[C@H](O)[C@H](C)O2)Oc2ccc(cc2Cl)[C@H]1O` [VANCOMYCIN], the MIC – broadly, the least concentration at which growth counts as inhibited – is 8 mg/L (≈ 5.52 µM) in the assay with Staphylococcus aureus [1]; 8 mg/L (≈ 5.52 µM) with Staphylococcus aureus [2]; not below 8 mg/L against Staphylococcus aureus [3]; 8 mg/L (≈ 5.52 µM) in the assay with Staphylococcus aureus [4]; 8 mg/L (≈ 5.52 µM) in the assay with Staphylococcus aureus [5]; 8 mg/L (≈ 5.52 µM) in the assay with Staphylococcus aureus [6]. Further, the MIC with Staphylococcus aureus [7], against Staphylococcus aureus [8], with Staphylococcus aureus [9], against Staphylococcus aureus [10], against Staphylococcus aureus [11] and with Staphylococcus aureus [12] was 8 mg/L (≈ 5.52 µM) in each case. Besides, the MIC against Staphylococcus aureus [13] amounted to 8 mg/L (≈ 5.52 µM); in the assay with Staphylococcus aureus [14], 4 mg/L (≈ 2.76 µM); in the assay with Staphylococcus aureus [15] it was 0.25 mg/L (≈ 0.173 µM); with Staphylococcus aureus [16], 0.25 mg/L (≈ 0.173 µM); in the assay on Staphylococcus aureus [17] it was 0.25 mg/L (≈ 0.173 µM); in the assay with Staphylococcus aureus [18] it was 0.25 mg/L (≈ 0.173 µM).

The record behind these values is ChEMBL document CHEMBL1687763 (2010).
